Results on 21 molecules are retold here after patent publication US20250115597A1, “TYK2 INHIBITORS AND COMPOSITIONS AND METHODS THEREOF” (LYNK PHARMACEUTICALS CO. LTD., priority 2021, published 2025).

pIC50: −log10 of the molar value. Like-named read-outs stand apart in the source and are kept apart here.

In data set [1] the target is T1, Ba/F3-FL-TYK2-P760L cells (Homo sapiens, UniProt P29597, P760L, cells depend on it).
T1 construct: BaF3-FL-T2P760L (nM)
Nature of the data set: Anti-proliferative assay, Ba/F3-FL-TYK2-P760L cells (Cell-Titer Glo). It counts as cell-based. Particulars: 72 h, read-out: BaF3-FL-T2P760L IC50. The gist of the method:
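Compound exposure ran 72 h at 37 °C in 5% CO2 across nine 3-fold concentrations from a 20 μM top dose, added 24 h after seeding 2000 cells/well.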

For a further data set, the target named is T2, TYK2-JH2 domain (Homo sapiens, UniProt P29597).
T2 construct: IC50 on JH2 domain activity (nM)
T2 sequence (P29597 589-875 limits assumed): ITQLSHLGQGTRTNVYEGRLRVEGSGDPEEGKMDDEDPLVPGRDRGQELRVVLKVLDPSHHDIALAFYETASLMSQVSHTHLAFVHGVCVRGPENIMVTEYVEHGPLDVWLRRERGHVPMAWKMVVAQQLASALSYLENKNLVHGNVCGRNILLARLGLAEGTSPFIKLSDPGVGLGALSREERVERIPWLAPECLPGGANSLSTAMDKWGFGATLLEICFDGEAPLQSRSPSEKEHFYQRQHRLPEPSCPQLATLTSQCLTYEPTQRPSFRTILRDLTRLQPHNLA
The data set is described as follows: Binding activity test for JH2 domain of TYK2 (Tb-antibody/tracer FRET). Here is the method:
Binding Activity Test for […] Domain of JAK1 and TYK2 The compounds are prepared in DMSO for 200× top dose, then serial dilute it with 27-fold for 3 more points. Add 8 μL/well in echo source plate, echo will add 75 nL/well with 3-fold serial dilution for 11 points in assay plate. 75 nL DMSO for high control and low control. […] For low control, add 5 μL/well assay buffer. And then spin down at 1000 rpm and centrifuge for 30 seconds. After enzyme system prepared, add 5 μL of Tb-antibody solution into each wells of assay plate. Spin down at 1000 rpm and centrifuge for 30 sec. After Tb-antibody added, also add 5 μL of tracer into the assay plate. Spin down at 1000 rpm and centrifuge for 30 sec. Incubate for 60 mins at 25° C. firstly and then continue to incubate the plate at 4° C. overnight. Read by envision in FRET mode. The Luminescence value was recorded by a multi-label reader Envision (PerkinElmer).

Data set [2] is described as follows: Microsomal metabolic stability assay. Format: in vitro ADME. The conditions noted are these: pH 7.4, 0.5 mg/mL protein, 1 μM compound. In short, it runs like this: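 Parent loss was tracked by LC/MS/MS at 0, 5, 15, 30 and 45 min, with half-life derived from the ln(% remaining)–time slope. Incubation at 37 °C, pH 7.4 phosphate/EDTA buffer: 0.5 mg/mL microsomes, 1 μM compound, NADPH-regenerated (2 mM).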

T1 sequence (P29597 whole entry P760L): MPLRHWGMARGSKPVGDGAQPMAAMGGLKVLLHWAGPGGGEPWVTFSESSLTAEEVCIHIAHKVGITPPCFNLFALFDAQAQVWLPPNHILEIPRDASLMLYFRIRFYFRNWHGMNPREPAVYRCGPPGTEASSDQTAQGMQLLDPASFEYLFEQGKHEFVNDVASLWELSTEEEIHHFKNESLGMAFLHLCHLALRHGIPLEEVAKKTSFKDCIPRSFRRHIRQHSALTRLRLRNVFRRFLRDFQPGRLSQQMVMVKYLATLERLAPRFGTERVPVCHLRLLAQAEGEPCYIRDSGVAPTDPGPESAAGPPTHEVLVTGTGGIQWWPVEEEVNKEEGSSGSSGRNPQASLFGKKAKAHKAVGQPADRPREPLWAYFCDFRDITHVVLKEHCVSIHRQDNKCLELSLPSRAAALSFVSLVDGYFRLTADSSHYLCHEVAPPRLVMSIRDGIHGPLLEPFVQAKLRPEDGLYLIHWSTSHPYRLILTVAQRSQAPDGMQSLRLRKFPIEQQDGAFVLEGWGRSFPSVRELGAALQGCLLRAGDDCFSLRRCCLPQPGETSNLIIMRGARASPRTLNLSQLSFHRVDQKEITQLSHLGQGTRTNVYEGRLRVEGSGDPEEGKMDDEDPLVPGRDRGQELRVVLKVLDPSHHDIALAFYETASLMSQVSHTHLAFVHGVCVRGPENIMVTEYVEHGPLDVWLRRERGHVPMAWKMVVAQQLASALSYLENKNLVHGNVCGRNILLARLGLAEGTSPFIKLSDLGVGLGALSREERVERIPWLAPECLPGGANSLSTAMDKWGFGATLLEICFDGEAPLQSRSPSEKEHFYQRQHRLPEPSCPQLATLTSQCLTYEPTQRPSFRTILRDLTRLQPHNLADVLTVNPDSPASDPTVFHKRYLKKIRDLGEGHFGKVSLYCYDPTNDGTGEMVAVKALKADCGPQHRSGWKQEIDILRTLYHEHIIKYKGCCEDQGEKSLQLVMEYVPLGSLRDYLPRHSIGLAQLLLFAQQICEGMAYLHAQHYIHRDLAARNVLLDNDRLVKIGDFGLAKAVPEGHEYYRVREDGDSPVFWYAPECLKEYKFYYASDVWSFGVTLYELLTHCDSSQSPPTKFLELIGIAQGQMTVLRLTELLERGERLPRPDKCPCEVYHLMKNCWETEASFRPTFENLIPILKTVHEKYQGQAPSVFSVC

For the molecule `[2H]C([2H])([2H])NC(=O)c1cnc(NC(=O)C2CC2)cc1Nc1csc2c(Cl)cn(CC)c(=O)c12` [Example 173, 4-((7-Chloro-5-ethyl-4-oxo-4,5-dihydrothieno[3,2-c]pyridin-3-yl)amino)-6-(cyclopropanecarboxamido)-N-(methyl-d3)nicotinamide], the GI50 in data set [1] was found to be 0.0865 µM. The same molecule gave a negative logarithm of the IC50 (pIC50) on TYK2-JH2 domain of 9.09.

As to `[2H]C([2H])([2H])NC(=O)c1cnc(NC(=O)C2CC2)cc1Nc1cn(C)c2ccn(C(C)C(F)(F)F)c(=O)c12` (single isomer, unassigned) [Example 190A, (R*)-6-(Cyclopropanecarboxamido)-N-(methyl-d3)-4-((1-methyl-4-oxo-5-(1,1,1-trifluoropropan-2-yl)-4,5-dihydro-1H-pyrrolo[3,2-c]pyridin-3-yl)amino)nicotinamide], the GI50 in data set [1] was 0.113 µM. On TYK2-JH2 domain, this molecule had a negative-log IC50 (pIC50) of 9.21.

Turning to `[2H]C([2H])([2H])NC(=O)c1cnc(NC(=O)C2CC2)cc1Nc1ccn2cnc(CC)c2c1OC` [Example 57, 6-(Cyclopropanecarboxamido)-4-((1-ethyl-8-methoxyimidazo[1,5-a]pyridin-7-yl)amino)-N-(methyl-d3)nicotinamide], the GI50 in data set [1] was above 5 µM. Further, on TYK2-JH2 domain, the pIC50 was 8.28.

Turning to `[2H]C([2H])([2H])NC(=O)c1cnc(NC(=O)C2CC2)cc1Nc1cn(CCOC)c2ccn(CC)c(=O)c12` [Example 193, 6-(Cyclopropanecarboxamido)-4-((5-ethyl-1-(2-methoxyethyl)-4-oxo-4,5-dihydro-1H-pyrrolo[3,2-c]pyridin-3-yl)amino)-N-(methyl-d3)nicotinamide], the microsomal CLint at 1 μM in data set [2] (dog liver microsomes, read-out: Dog LM Clint) is 11.2 µL/min/mg; in data set [2] (human liver microsomes, read-out: Human LM Clint) it was 10.8 µL/min/mg; in data set [2] (rat liver microsomes, read-out: Rat LM Clint), 53.8 µL/min/mg. In addition, the half-life at 1 μM came out at 2.06 h in data set [2] (dog liver microsomes, read-out: Dog LM T½); 2.14 h in data set [2] (human liver microsomes, read-out: Human LM T½); 0.43 h in data set [2] (rat liver microsomes, read-out: Rat LM T½). Further, the GI50 in data set [1] is 0.368 µM. On TYK2-JH2 domain, this molecule gave a negative-log IC50 (pIC50) of 8.85.

Regarding `[2H]C([2H])([2H])NC(=O)c1cnc(NC(=O)C2CC2)cc1Nc1ncn2ncc(C)c2c1OC` [Example 279, 6-(Cyclopropanecarboxamido)-4-((4-methoxy-3-methylpyrazolo[1,5-c]pyrimidin-5-yl)amino)-N-(methyl-d3)nicotinamide], the GI50 in data set [1] amounted to 0.0701 µM. The molecule also had a pIC50 at TYK2-JH2 domain of 9.48.

With `CCN1C(=O)Cc2ccc(Nc3cc(NC(=O)C4CC4)ncc3C(=O)NC)c(OC)c21` [Example 205, 6-(Cyclopropanecarboxamido)-4-((1-ethyl-7-methoxy-2-oxoindolin-6-yl)amino)-N-methylnicotinamide], the GI50 in data set [1] came out at 0.252 µM. Moreover, on TYK2-JH2 domain, the pIC50 was 8.88.

Consider `CCn1ncc2ccc(Nc3cc(NC(=O)C4CC4)ncc3C(=O)OC)c(OC(F)(F)F)c21` [Example 148, Methyl 6-(cyclopropanecarboxamido)-4-((1-ethyl-7-(trifluoromethoxy)-1H-indazol-6-yl)amino)nicotinate], for which the GI50 in data set [1] came to 0.242 µM. Also, the pIC50 at TYK2-JH2 domain was below 6.53.

Consider `[2H]C([2H])([2H])NC(=O)c1cnc(NC(=O)C2CC2)cc1Nc1ccc2c(c(CC)nn2C)c1OC` [Example 150, 6-(Cyclopropanecarboxamido)-4-((3-ethyl-4-methoxy-1-methyl-1H-indazol-5-yl)amino)-N-(methyl-d3)nicotinamide], for which the GI50 in data set [1] is 0.231 µM. On TYK2-JH2 domain, this molecule gave a pIC50 of 8.73.

As to `[2H]C([2H])([2H])NC(=O)c1cnc(NC(=O)C2CC2)cc1Nc1cn(CC(F)(F)F)c2ncn(CC)c(=O)c12` [Example 214, 6-(Cyclopropanecarboxamido)-4-((3-ethyl-4-oxo-7-(2,2,2-trifluoroethyl)-4,7-dihydro-3H-pyrrolo[2,3-d]pyrimidin-5-yl)amino)-N-(methyl-d3)nicotinamide], the GI50 in data set [1] amounted to 0.217 µM. For the same molecule, the pIC50 at TYK2-JH2 domain was 9.25.

`[2H]C([2H])([2H])NC(=O)c1cnc(NC(=O)C2CC2)cc1Nc1ncn2ncc(Cl)c2c1OC` [Example 281, 4-((3-Chloro-4-methoxypyrazolo[1,5-c]pyrimidin-5-yl)amino)-6-(cyclopropanecarboxamido)-N-(methyl-d3)nicotinamide]: the GI50 in data set [1] stood at 0.0482 µM. The molecule further showed a pIC50 on TYK2-JH2 domain of 9.60.

For the molecule `[2H]C([2H])([2H])NC(=O)c1cnc(NC(=O)C2CC2)cc1Nc1cn(C2CC2)c2ncn(CC)c(=O)c12` [Example 211], the GI50 in data set [1] is 0.174 µM. The same molecule gave a negative-log IC50 (pIC50) on TYK2-JH2 domain of 9.15.

As to `[2H]C([2H])([2H])NC(=O)c1cnc(NC(=O)C2CC2)nc1Nc1ccc2cnn(CC)c2c1OC` [Example 135, 2-(Cyclopropanecarboxamido)-4-((1-ethyl-7-methoxy-1H-indazol-6-yl)amino)-N-(methyl-d3)pyrimidine-5-carboxamide], in data set [1], the GI50 was 0.128 µM. Further, on TYK2-JH2 domain, the negative-log IC50 (pIC50) is 8.84.

In the case of `[2H]C([2H])([2H])NC(=O)c1cnc(NC(=O)C2CC2)cc1Nc1cnc2cnn(CC)c2c1OC` [Example 265, 6-(Cyclopropanecarboxamido)-4-((1-ethyl-7-methoxy-1H-pyrazolo[4,3-b]pyridin-6-yl)amino)-N-(methyl-d3)nicotinamide], in data set [1], the GI50 was above 5 µM. On TYK2-JH2 domain, the negative logarithm of the IC50 (pIC50) was 7.16.

On to `COC(=O)c1cnc(NC(=O)C2CC2)cc1Nc1cn(C)c2ccn(C)c(=O)c12` [Example 116, Methyl 6-(cyclopropanecarboxamido)-4-((1,5-dimethyl-4-oxo-4,5-dihydro-1H-pyrrolo[3,2-c]pyridin-3-yl)amino)nicotinate], for which, in data set [1], the GI50 came out at 0.102 µM. The molecule further showed a negative logarithm of the IC50 (pIC50) at TYK2-JH2 domain of 8.48.

Consider `[2H]C([2H])([2H])NC(=O)c1cnc(NC(=O)C2CC2)cc1Nc1ccc2cnc(CC)n2c1OC` [Example 227, 6-(Cyclopropanecarboxamido)-4-((3-ethyl-5-methoxyimidazo[1,5-a]pyridin-6-yl)amino)-N-(methyl-d3)nicotinamide], for which, in data set [1], the GI50 is above 5 µM. On TYK2-JH2 domain, this molecule showed a pIC50 of 8.12.

For `[2H]C([2H])([2H])NC(=O)c1cnc(NC(=O)C2CC2)cc1Nc1ccc2nn(C)c(CC)c2c1OC` [Example 232, 6-(Cyclopropanecarboxamido)-4-((3-ethyl-4-methoxy-2-methyl-2H-indazol-5-yl)amino)-N-(methyl-d3)nicotinamide], in data set [1], the GI50 amounted to 1.7 µM. Further, the pIC50 on TYK2-JH2 domain was 8.80.

For the molecule `[2H]C([2H])([2H])NC(=O)c1cnc(NC(=O)C2CC2)cc1Nc1ncn2ncc(CC)c2c1OC` [Example 280, 6-(Cyclopropanecarboxamido)-4-((3-ethyl-4-methoxypyrazolo[1,5-c]pyrimidin-5-yl)amino)-N-(methyl-d3)nicotinamide], the GI50 in data set [1] amounted to 0.0402 µM. Further, the pIC50 on TYK2-JH2 domain was 9.74.

On to `[2H]C([2H])([2H])NC(=O)c1cnc(NC(=O)C2CC2)cc1Nc1ccc2cnn(CCN(C)C)c2c1OC` [Example 274, 6-(Cyclopropanecarboxamido)-4-((1-(2-(dimethylamino)ethyl)-7-methoxy-1H-indazol-6-yl)amino)-N-(methyl-d3)nicotinamide], for which, in data set [1], the GI50 was above 5 µM. At TYK2-JH2 domain, this molecule gave a pIC50 of 7.46.

As for `[2H]C([2H])([2H])NC(=O)c1cnc(NC(=O)C2CC2)cc1Nc1cn(C)c2ncn(CC(F)F)c(=O)c12` [Example 194, 6-(Cyclopropanecarboxamido)-4-((3-(2,2-difluoroethyl)-7-methyl-4-oxo-4,7-dihydro-3H-pyrrolo[2,3-d]pyrimidin-5-yl)amino)-N-(methyl-d3)nicotinamide], in data set [1], the GI50 came to 0.562 µM. Also, the pIC50 on TYK2-JH2 domain was 9.12.

In the case of `[2H]C([2H])([2H])NC(=O)c1cnc(NC(=O)C2CC2)cc1Nc1ncn2ncc(C#N)c2c1OC` [Example 282, 4-((3-Cyano-4-methoxypyrazolo[1,5-c]pyrimidin-5-yl)amino)-6-(cyclopropanecarboxamido)-N-(methyl-d3)nicotinamide], in data set [1], the GI50 came out at 0.0752 µM. This molecule also gave a pIC50 on TYK2-JH2 domain of 9.57.

Take `[2H]C([2H])([2H])NC(=O)c1nnc(NC(=O)C2CC2)cc1Nc1ccc2cnn(CC)c2c1OC` [Example 144, 6-(Cyclopropanecarboxamido)-4-((1-ethyl-7-methoxy-1H-indazol-6-yl)amino)-N-(methyl-d3)pyridazine-3-carboxamide]: the GI50 in data set [1] was 0.344 µM. The same molecule gave a pIC50 on TYK2-JH2 domain of 8.89.
